The NIST ThermoML archive (doi:10.1016/j.jct.2015.07.005)
Values joined by “and” are separate entries in the source; they are usually repeats but may differ in a detail not shown here. Identical values can stand only once.

Settings: Gas, Frequency=0.005 MHz, Spherical cavity resonance method

COC(F)(F)C(F)(F)C(F)(F)F [heptafluoropropyl methyl ether]
Settings	speed of sound
324.96 K, 164.7 kPa	110.67 m/s
324.97 K, 64.71 kPa	115.86 m/s and 115.86 m/s
324.97 K, 95.55 kPa	114.33 m/s
324.97 K, 95.56 kPa	114.33 m/s
324.97 K, 95.57 kPa	114.33 m/s
324.97 K, 95.59 kPa	114.33 m/s
324.97 K, 133.44 kPa	112.39 m/s
324.97 K, 133.45 kPa	112.39 m/s
324.97 K, 164.69 kPa	110.67 m/s
324.97 K, 164.72 kPa	110.67 m/s
349.97 K, 63.93 kPa	120.9 m/s
349.97 K, 63.94 kPa	120.9 m/s
349.97 K, 154.62 kPa	117.37 m/s
349.97 K, 154.64 kPa	117.37 m/s
349.97 K, 235.72 kPa	113.96 m/s
349.97 K, 235.74 kPa	113.96 m/s
349.97 K, 235.77 kPa	113.96 m/s
349.97 K, 317.58 kPa	110.17 m/s
349.97 K, 317.59 kPa	110.17 m/s
349.97 K, 317.63 kPa	110.17 m/s
374.95 K, 63.1 kPa	125.6 m/s and 125.6 m/s
374.95 K, 63.11 kPa	125.6 m/s
374.95 K, 160.58 kPa	122.61 m/s
374.95 K, 160.6 kPa	122.61 m/s
374.95 K, 285.28 kPa	118.5 m/s
374.95 K, 285.32 kPa	118.5 m/s
374.95 K, 285.36 kPa	118.5 m/s
374.95 K, 400.83 kPa	114.37 m/s
374.95 K, 400.86 kPa	114.37 m/s
374.95 K, 400.9 kPa	114.36 m/s
374.95 K, 510.48 kPa	110.03 m/s
374.95 K, 510.5 kPa	110.03 m/s
374.95 K, 632.78 kPa	104.58 m/s
374.95 K, 632.8 kPa	104.58 m/s
374.95 K, 632.82 kPa	104.58 m/s
374.96 K, 63.11 kPa	125.6 m/s
374.96 K, 160.58 kPa	122.61 m/s
399.99 K, 67.78 kPa	129.91 m/s
399.99 K, 197.55 kPa	126.68 m/s
399.99 K, 349.57 kPa	122.65 m/s
399.99 K, 650.2 kPa	113.69 m/s
399.99 K, 650.23 kPa	113.69 m/s
399.99 K, 806.55 kPa	108.28 m/s
399.99 K, 953.71 kPa	102.52 m/s
399.99 K, 953.73 kPa	102.52 m/s
399.99 K, 1130.3 kPa	94.29 m/s
400 K, 67.78 kPa	129.91 m/s
400 K, 197.63 kPa	126.68 m/s
400 K, 197.66 kPa	126.68 m/s
400 K, 349.52 kPa	122.65 m/s
400 K, 349.53 kPa	122.65 m/s
400 K, 502.98 kPa	118.27 m/s
400 K, 503.01 kPa	118.27 m/s
400 K, 503.03 kPa	118.27 m/s
400 K, 805.95 kPa	108.3 m/s
400 K, 805.97 kPa	108.3 m/s
400 K, 805.99 kPa	108.3 m/s
400 K, 806.53 kPa	108.28 m/s
400 K, 806.58 kPa	108.28 m/s
400 K, 953.71 kPa	102.52 m/s
400 K, 1130.2 kPa	94.3 m/s
424.94 K, 60.05 kPa	134.29 m/s
424.94 K, 60.06 kPa	134.29 m/s
424.94 K, 200.53 kPa	131.44 m/s
424.94 K, 200.58 kPa	131.44 m/s
424.94 K, 407.75 kPa	127 m/s
424.94 K, 407.78 kPa	127 m/s
424.94 K, 407.79 kPa	127 m/s
424.94 K, 407.83 kPa	127 m/s
424.94 K, 603.76 kPa	122.51 m/s
424.94 K, 603.77 kPa	122.51 m/s
424.94 K, 603.81 kPa	122.51 m/s
424.94 K, 802.02 kPa	117.61 m/s
424.94 K, 802.08 kPa	117.6 m/s
424.94 K, 802.15 kPa	117.6 m/s
424.94 K, 1005.8 kPa	112.1 m/s
424.94 K, 1006 kPa	112.1 m/s
424.94 K, 1006.1 kPa	112.09 m/s
424.94 K, 1202.6 kPa	106.2 m/s and 106.21 m/s
424.94 K, 1202.7 kPa	106.2 m/s
424.94 K, 1393 kPa	99.76 m/s
424.94 K, 1393.1 kPa	99.76 m/s
424.94 K, 1393.2 kPa	99.75 m/s
424.94 K, 1607.6 kPa	91.22 m/s
424.94 K, 1607.7 kPa	91.21 m/s
424.94 K, 1608.4 kPa	91.18 m/s
424.94 K, 1608.5 kPa	91.17 m/s
424.94 K, 1608.7 kPa	91.17 m/s
449.95 K, 64.75 kPa	138.25 m/s
449.95 K, 64.76 kPa	138.25 m/s
449.95 K, 208.64 kPa	135.84 m/s
449.95 K, 208.65 kPa	135.84 m/s
449.95 K, 396.59 kPa	132.57 m/s
449.95 K, 396.63 kPa	132.57 m/s
449.95 K, 396.66 kPa	132.57 m/s
449.95 K, 606.05 kPa	128.76 m/s
449.95 K, 606.08 kPa	128.76 m/s
449.95 K, 606.12 kPa	128.76 m/s
449.95 K, 606.24 kPa	128.76 m/s
449.95 K, 606.26 kPa	128.76 m/s
449.95 K, 606.27 kPa	128.76 m/s
449.95 K, 809.63 kPa	124.87 m/s
449.95 K, 809.64 kPa	124.87 m/s
449.95 K, 1001.1 kPa	121.03 m/s and 121.04 m/s
449.95 K, 1209.6 kPa	116.6 m/s
449.95 K, 1209.7 kPa	116.6 m/s
449.95 K, 1413.8 kPa	111.99 m/s
449.95 K, 1623.9 kPa	106.9 m/s
449.96 K, 1001.1 kPa	121.04 m/s
449.96 K, 1624.3 kPa	106.89 m/s
475 K, 67.47 kPa	142.11 m/s
475 K, 67.48 kPa	142.11 m/s
475 K, 67.49 kPa	142.12 m/s
475 K, 67.62 kPa	142.11 m/s
475 K, 67.64 kPa	142.11 m/s
475 K, 189.2 kPa	140.43 m/s
475 K, 189.28 kPa	140.42 m/s
475 K, 395.98 kPa	137.47 m/s
475 K, 395.99 kPa	137.47 m/s
475 K, 396.05 kPa	137.47 m/s
475 K, 396.11 kPa	137.47 m/s
475 K, 396.13 kPa	137.47 m/s
475 K, 396.16 kPa	137.47 m/s
475.01 K, 396.09 kPa	137.47 m/s
475.01 K, 396.11 kPa	137.47 m/s
475.01 K, 587.06 kPa	134.67 m/s
475.01 K, 795.76 kPa	131.5 m/s
475.01 K, 1005.5 kPa	128.23 m/s
475.01 K, 1197.2 kPa	125.14 m/s
475.01 K, 1402 kPa	121.75 m/s
475.01 K, 1402.1 kPa	121.75 m/s
475.02 K, 795.76 kPa	131.5 m/s
475.02 K, 1005.5 kPa	128.23 m/s
475.02 K, 1197.2 kPa	125.14 m/s
475.02 K, 1402.1 kPa	121.75 m/s
475.02 K, 1583.1 kPa	118.65 m/s
475.02 K, 1583.2 kPa	118.65 m/s
500.01 K, 62.05 kPa	145.96 m/s
500.01 K, 62.06 kPa	145.96 m/s
500.01 K, 62.27 kPa	145.95 m/s
500.01 K, 192.99 kPa	144.43 m/s
500.01 K, 193.25 kPa	144.42 m/s
500.01 K, 193.35 kPa	144.42 m/s
500.01 K, 400.4 kPa	141.96 m/s
500.01 K, 400.43 kPa	141.96 m/s
500.01 K, 400.48 kPa	141.96 m/s
500.01 K, 400.64 kPa	141.97 m/s
500.01 K, 400.67 kPa	141.97 m/s
500.01 K, 605.81 kPa	139.49 m/s
500.01 K, 804.2 kPa	137.05 m/s
500.02 K, 400.69 kPa	141.97 m/s
500.02 K, 605.7 kPa	139.49 m/s
500.02 K, 804.24 kPa	137.05 m/s
500.02 K, 804.31 kPa	137.05 m/s
500.02 K, 1002.8 kPa	134.57 m/s
500.02 K, 1206.9 kPa	131.99 m/s and 131.98 m/s
500.02 K, 1207 kPa	131.98 m/s
500.02 K, 1400.6 kPa	129.51 m/s and 129.5 m/s
500.02 K, 1400.7 kPa	129.5 m/s
500.02 K, 1593.1 kPa	127 m/s
500.03 K, 1593.1 kPa	127.01 m/s and 127 m/s
